The assay concerns the target ATP-dependent translocase ABCB1 (Homo sapiens, UniProt P08183).

Chain of ATP-dependent translocase ABCB1 (P08183 whole entry): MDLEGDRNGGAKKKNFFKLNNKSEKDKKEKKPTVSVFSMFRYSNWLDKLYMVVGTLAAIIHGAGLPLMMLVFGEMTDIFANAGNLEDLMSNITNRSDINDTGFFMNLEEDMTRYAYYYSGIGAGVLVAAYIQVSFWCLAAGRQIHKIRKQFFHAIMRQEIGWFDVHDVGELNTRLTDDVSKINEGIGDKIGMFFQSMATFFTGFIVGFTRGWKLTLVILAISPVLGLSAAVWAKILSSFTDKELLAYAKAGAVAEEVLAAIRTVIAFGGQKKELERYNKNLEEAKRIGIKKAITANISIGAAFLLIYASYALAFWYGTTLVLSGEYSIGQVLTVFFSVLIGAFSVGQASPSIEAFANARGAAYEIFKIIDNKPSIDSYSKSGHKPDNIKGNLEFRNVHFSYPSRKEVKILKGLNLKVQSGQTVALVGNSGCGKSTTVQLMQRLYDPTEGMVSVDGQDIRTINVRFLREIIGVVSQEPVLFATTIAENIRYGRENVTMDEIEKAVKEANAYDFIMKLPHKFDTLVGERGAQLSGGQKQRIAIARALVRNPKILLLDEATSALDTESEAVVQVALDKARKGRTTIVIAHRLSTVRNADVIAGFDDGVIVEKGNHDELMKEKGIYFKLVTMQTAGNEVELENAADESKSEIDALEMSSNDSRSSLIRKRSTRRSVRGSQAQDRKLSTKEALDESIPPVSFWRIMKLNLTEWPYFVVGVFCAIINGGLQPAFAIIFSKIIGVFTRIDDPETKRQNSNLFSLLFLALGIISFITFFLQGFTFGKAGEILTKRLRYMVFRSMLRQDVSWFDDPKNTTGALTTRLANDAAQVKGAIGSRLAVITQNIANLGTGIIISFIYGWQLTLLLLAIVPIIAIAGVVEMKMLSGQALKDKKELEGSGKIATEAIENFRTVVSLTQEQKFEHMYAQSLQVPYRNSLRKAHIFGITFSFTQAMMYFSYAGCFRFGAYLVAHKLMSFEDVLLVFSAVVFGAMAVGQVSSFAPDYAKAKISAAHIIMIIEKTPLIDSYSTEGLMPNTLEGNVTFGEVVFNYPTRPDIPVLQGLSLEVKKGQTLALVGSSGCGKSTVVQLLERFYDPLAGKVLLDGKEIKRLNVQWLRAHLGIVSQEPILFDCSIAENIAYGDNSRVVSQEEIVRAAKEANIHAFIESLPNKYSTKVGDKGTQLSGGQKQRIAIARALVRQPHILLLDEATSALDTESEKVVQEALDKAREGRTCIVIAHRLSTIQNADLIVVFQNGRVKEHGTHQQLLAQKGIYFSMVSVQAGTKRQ
Description: TP_TRANSPORTER: transepithelial transport of digoxin (basal to apical) in Caco-2 cells

`COC(=O)[C@H]1[C@H]2C[C@@H]3c4[nH]c5cc(OC)ccc5c4CCN3C[C@H]2C[C@@H](OC(=O)c2cc(OC)c(OC)c(OC)c2)[C@@H]1OC` [RESERPINE]: the affinity corresponds to a Ki of 2310 nM.

These data come from ChEMBL document CHEMBL2074265, “Isolation and characterization of Caco-2 subclones expressing high levels of multidrug resistance protein efflux transporter” (Pharm Res, 2003).
